{
  "source": "patent US5817756A",
  "about": "“Pseudo- and non-peptide bradykinin receptor antagonists” (Scios Inc., priority 1995, dated 1998)",
  "key": {"human B2 receptor": {"target": "T1, human B2 receptor (Homo sapiens, UniProt P30411)", "T1 construct": "The HindIII/XbaI fragment of one full-length clone, 126A, was inserted into pcDNAI neo vector; expressed in transfected cells", "T1 sequence (P30411 1-391)": "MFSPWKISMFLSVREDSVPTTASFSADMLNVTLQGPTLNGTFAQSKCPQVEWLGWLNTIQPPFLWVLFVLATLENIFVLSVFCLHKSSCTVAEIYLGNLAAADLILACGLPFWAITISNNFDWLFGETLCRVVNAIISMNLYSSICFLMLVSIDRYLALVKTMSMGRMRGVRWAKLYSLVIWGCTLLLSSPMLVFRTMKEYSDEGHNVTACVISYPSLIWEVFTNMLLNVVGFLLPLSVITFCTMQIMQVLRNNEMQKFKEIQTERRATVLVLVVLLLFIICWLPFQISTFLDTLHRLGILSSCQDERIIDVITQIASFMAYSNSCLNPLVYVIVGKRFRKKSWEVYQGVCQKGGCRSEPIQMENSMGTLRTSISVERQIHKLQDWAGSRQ", "assay": "Whole cell binding assay, 3H-bradykinin", "conditions": "Table 2, whole cells, read-out: Radioligand Binding, Ki Whole Cell 3HBK", "protocol": "Binding to confluent monolayers of transfected cells expressing the human B2 receptor (7,000 fmol/receptor/mg) grown in 24-well plates was measured by incubating cells in 1 ml cell binding buffer (PBS/Ca/Mg, 1% BSA, 0.14 mg/ml bacitracin) containing 10^-10 M ^3 H-bradykinin and various concentrations of unlabeled analogs for 4 to 10 hours at 4° C. Cells were washed three times with cell binding buffer and lysed in 0.1N NaOH. An aliquot of the lysate was counted to measure radioactivity bound."}, "[1]": {"target": "T2, human bradykinin B2 receptor (Homo sapiens, UniProt P30411)", "T2 construct": "The HindIII/XbaI fragment of one full-length clone, 126A, was inserted into pcDNAI neo vector; expressed in transfected cells", "T2 sequence (P30411 1-391)": "T1 sequence (P30411 1-391)", "assay": "Radioligand binding, H2O.2 cell membranes, 3H-bradykinin", "conditions": "Table 2, read-out: Radioligand Binding, Ki Human 3HBK", "protocol": "(§1) A human bradykinin B2 receptor was expressed in CHO/K cells. Briefly, approximately 2×10^6 plaques from a human uterus λgt10 cDNA library (Clontech Laboratories; Palo Alto, Calif.) were screened using a PCR fragment containing the coding region of the rat B2 receptor. This probe was generated by random-primed synthesis in the presence of α[^32 P]dATP. Duplicate filters were hybridized overnight at 42° C. in 1M NaCl, 50 mM Tris pH 7.5, 5× Denhardt's, 200 μg/ml salmon sperm DNA, 1% SDS, and 20% formamide. The filters were washed at 65° C. in 1× SSC and 1% SDS. Coincident positively hybridizing plaques were purified and rescreened with the same probe and stringency conditions. EcoRI fragments of positive clones were inserted into Bluescript/KS II+vector (Stratagene; La Jolla, Calif.) for sequence determination.\n(§2) The nucleotide sequence of the cloned human B2 receptors was determined using double-stranded DNA and the dideoxy chain termination method. Commercially available T3 and T7 oligonucleotides (USB; Cleveland, Ohio) and synthetic 21-mer oligonucleotides (DNA/RNA Synthesizer; applied Biosystems Inc.; Palo Alto, Calif.) from both the known rat sequence and the determined human sequence were used to identify the nucleotide sequence from the 5' untranslated end to the BglII site in the 3' untranslated end of the clone.\n(§3) CHO/K cells were plated in 2 ml of growth medium (Ham's F12 with 10% FBS) per 6 well plate and incubated at 37° C., 5% CO2 until they were 60% confluent. For each well, 4, 12, and 16 μg of DNA was diluted in 100 μl Opti-MEM I reduced serum medium (Gibco/BRL; Gaithersburg, Md.). 12 μl of TransfectASE reagent (Gibco/BRL) was diluted in a separate aliquot of 100 μl Opti-MEM I. The DNA and TransfecASE solutions were combined, mixed gently, and incubated at 25° C. for 15 minutes. This solution was then diluted to 1 ml with Opti-MEM I. Each well was washed twice with Opti-MEM I and 1 ml of the DNA/TransfectAse complex was added to each well. After a 5 hour incubation at 37° C. and 5% CO2, 1 ml of Ham's F12 with 20% FBS was added to each well and cells were incubated overnight. Media was replaced with growth medium and incubated for additional 24 hours.\n(§4) This assay measures the ability of a bradykinin antagonist compound to compete for binding to the human B2 receptor with tritiated bradykinin or tritiated NPC17731, a bradykinin analog which is known to bind the B2 receptor and act as a bradykinin antagonist.\n(§5) H2O.2 cells were grown to confluency in Ham's F12 media containing 10% FBS and 500 μg/ml Geneticin. Growth media was aspirated and the monolayer washed once with Dulbecco's PBS without Ca^++ and Mg^++. Cells were scraped in Dulbecco's PBS and centrifuged at 2,000×g for 10 minutes. Pellets were resuspended in 25 mM TES, 1 mM 1,10-phenanthroline pH 6.8 buffer and homogenized using a Ploytron at setting 5 for 10 seconds. An aliquot was taken for a protein determination using a BioRad protein assay kit. Membranes were centrifuged at 48,000×g for 10 minutes at 4° C. Pellets were resuspended in the TES buffer with 0.1% BSA and 0.014% bacitracin. 0.5 ml aliquots were frozen in liquid N2 and stored at -80° C. for up to 2 weeks.\n(§6) Membranes from H2O.2 cells previously prepared were thawed at 37° C. and diluted in 25 mM TES, […] 1,10-phenanthroline pH 6.8 containing BSA and bactiracin. […] Non-specific binding was determined with 1 μM bradykinin. The tubes were incubated 90 minutes at 25° C. and the assay was terminated by rapid vacuum filtration onto Whatman GF/B filters presoaked with 0.2% PEI for 3 hours followed by 2×3 ml aliquots of ice-cold 50 mM Tris, pH 7.4. Radioactivity was counted with a Beckman scintillation counter."}, "[2]": {"target": "T2, human bradykinin B2 receptor", "assay": "Radioligand binding, H2O.2 cell membranes, 3H-NPC17731", "conditions": "Table 2; 3H-NPC17731; read-out: Radioligand Binding, Ki Human 3H17731", "protocol": "as §1, §2, §3, §4, §5, §6"}},
  "note": "pKi: −log10 of the molar value.",
  "data": [
    {"smiles": "N=C(N)NCCC[C@@H](N)C(=O)N[C@@H](CCCNC(=N)N)C(=O)N1CCC2(CC1)C(=O)N(CC(=O)N1CCc3c(n(CC(=O)N[C@@H](CCCNC(=N)N)C(=O)O)c4ccccc34)C1)CN2c1ccccc1", "note": "[Compound 2]", "values": [
      {"measurement": "pKi", "setting": "human B2 receptor", "value": 4.98},
      {"measurement": "pKi", "setting": "[1]", "value": 5.74},
      {"measurement": "pKi", "setting": "[2]", "value": 7.03}
    ]}
  ]
}
